Source: patent US8796267B2, “Oxazolidinone derivatives and methods of use” (Concert Pharmaceuticals, Inc., priority 2006, dated 2014)
≈ marks a conversion by molar mass, not a printed value. Read-outs that look alike come from different tables or passages of the source.

How the values were obtained:
S. pyogenes = experiment: MIC assay (broth microdilution); assay type: cell-based; settings: Streptococcus pyogenes; read-out: potency (MIC90)
Method: (§1) The three test compounds were stored at 4° C. until tested.
(§2) All test articles and drugs were dissolved in 50% dimethyl sulfoxide (DMSO) at one-half the volume needed to prepare the stock solution. Once the compound was in solution, the rest of the volume was added as sterile deionized water. The drug solutions were allowed to stand at room temperature for 1 hr to allow for auto-sterilization. Stock solutions were prepared at 40-fold the highest final test concentration in the test plate. The final concentration of DMSO in the assay was 2.5%.
(§3) The test organisms were obtained from clinical laboratories; quality control cultures were from the American Type Culture Collection. The test groups included Staphylococcus aureus, Staphylococcus epidermidis, Enterococcus faecalis, Enterococcus faecium, Streptococcus pneumoniae, Streptococcus pyogenes, Streptococcus agalactiae, Haemophilus influenzae, and Moraxella catarrhalis. Various phenotypic susceptibility/resistance groups were represented. Organisms received were streaked for isolation on agar medium appropriate to each organism. Colonies were picked by swab from the isolation plates and put into suspension in the appropriate media containing a cryoprotectant. The suspensions were aliquoted into cryogenic vials and maintained at −80° C. The isolates were thawed and passaged on the appropriate agar medium: Trypticase Soy agar (TSA) for most organisms, TSA plus 5% sheep blood for streptococci, and chocolate agar for Haemophilus. The plates were incubated overnight at 35° C. Haemophilus plates were incubated in the presence of CO2.
(§4) The medium employed for the MIC assay was Mueller Hinton II Broth (MHB II-Becton Dickinson, Sparks, Md. #212322, Lot #7143673) for most of the organisms. MHB II was supplemented with 2% lysed horse blood (Cleveland Scientific Lot #H93152) to accommodate the growth of Streptococcus pneumoniae. Haemophilus influenzae was tested in Haemophilus Test Medium. On the day of the test, the medium to be used in the daptomycin row of the daughters was supplemented with calcium ions to the final concentration of 50 μg/mL, taking into account the calcium that was already present in the medium.
(§5) The MIC assay method followed the procedure described by the Clinical and Laboratory Standards Institute and employed automated liquid handlers to conduct serial dilutions and liquid transfers. Automated liquid handlers included the Multidrop 384, Labsystems, Helsinki, Finland; Biomek 2000 and Multimek 96, Beckman Coulter, Fullerton Calif. The wells of standard 96-well microdilution plates (Falcon 3918) were filled with 150 μL of DMSO:deionized H2O (1:1) on the Multidrop 384. The drugs were dispensed into Column 1 of a deep well plate. The Biomek 2000 transferred 150 μL of each drug into one well in Column 1 of a “mother plate” and completed serial transfers through Column 11 in the mother plates. The wells of Column 12 contained no drug and were the organism growth control wells.
(§6) The daughter plates were loaded with 85 μL of the appropriate test media described above using the Multidrop 384. The daughter plates were prepared on the Multimek 96 instrument which transferred 5 μL of drug solution from each well of a mother plate to each corresponding well of each daughter plate in a single step.
(§7) Standardized inoculum of each organism was prepared per CLSI methods (Clinical and Laboratory Standards Institute. Methods for Dilution Antimicrobial Susceptibility Tests for Bacteria That Grow Aerobically; Approved Standard—Seventh Edition. Clinical and Laboratory Standards Institute document M7-A7 [ISBN 1-56238-587-9]. Clinical and Laboratory Standards Institute, 940 West Valley Road, Suite 1400, Wayne, Pa. 19087-1898 USA, 2006). Suspensions were prepared in MHB to equal a 0.5 McFarland standard. The suspensions were diluted 1:19 in broth appropriate to the organism. […]

community-acquired MRSA = experiment: MIC assay (broth microdilution); assay type: cell-based; settings: Staphylococcus aureus, clinical isolates
Method: as §1, §2, §3, §4, §5, §6, §7

[1] = system: methicillinsensitive S. aureus (MSSA); experiment: MIC assay (broth microdilution); assay type: cell-based; settings: Staphylococcus aureus, clinical isolates
Method: as §1, §2, §3, §4, §5, §6, §7

H. influenzae = experiment: MIC assay (broth microdilution); assay type: cell-based, Haemophilus influenzae; settings: in words
Method: as §1, §2, §3
The medium employed for the MIC assay was Mueller Hinton II Broth (MHB II-Becton Dickinson, Sparks, Md. #212322, Lot #7143673) for most of the organisms. MHB II was supplemented with 2% lysed horse blood (Cleveland Scientific Lot #H93152) to accommodate the growth of Streptococcus pneumoniae. Haemophilus influenzae was tested in Haemophilus Test Medium. […]

[2] = system: antibiotic resistant Grampositive pathogens including MRSA, VRE, and PRSP; experiment: In vitro antibacterial activity, overall conclusion; assay type: cell-based; settings: in words
Method: as §1, §2
as §3, with “The isolates were thawed and passaged on the appropriate agar medium: Trypticase Soy agar (TSA) for most organisms, TSA plus 5% sheep blood for streptococci, and chocolate agar for Haemophilus. The plates were incubated overnight at 35° C. Haemophilus plates were incubated in the presence of CO2.” left out

[3] = in words
Method: (§8) Four chimpanzees (two male and two female) were used in the study. One male and one female were used for the intravenous study and one male and one female were used for the oral dosing study. All animals were fasted overnight prior to dosing. For all studies animals were sedated with ketamine (approx. 10 mg/ml) or telazol (approx. 5 mg/ml) prior to dosing. […] Intravenous doses were administered (150 ml at 2 mg/ml combined drugs) by infusion over a 30 minute period. Oral doses were administered in a volume of 150 ml at 2 mg/ml combined drugs.
(§9) For the intravenous study, a 4.5 ml aliquot of blood was taken from each animal prior to the start of infusion, 15 minutes after the start of infusion, and immediately before the end of infusion. Additional samples were taken at 6, 15, 30, and 60 minutes and 1.5, 2, 4, 6, 8 and 24 hours following infusion. For the oral study, 4.5 ml aliquots of blood were taken from each animal prior to doing and then at 15, 20 and 60 minutes and 1.5, 2, 4, 6, 8 and 24 hours post dosing. All blood samples were collected into vacutainer tubes containing sodium heparin as an anticoagulant, sufficiently mixed and stored on wet ice. The samples were centrifuged within 1 hour of collection and the plasma collected and frozen at −70° C. until analysis. Urine was also collected from each animal over a 24 hour period following dosing.
Urine samples were similarly analyzed. […]

in vivo [4] = settings: 150 mg; for AUC(0-t): both, chimpanzee, po; for half-life: iv
Method: The dosing solution is then filtered through a 0.22 μm filter prior to dosing.
as §8, §9
Chimp plasma sample (100 μL) was mixed with 300 μL internal standard solution prior to LC-MS/MS analysis. The internal standard was 250 ng/mL haloperidol in acetonitrile/water (90/10, v/v). After protein precipitation, 10 L supernatant was injected to a Zorbax SB-C8 (Rapid Resolution) column (2.1×30 mm, 3.5 μm). The initial mobile phase condition was 100% A (water with 0.1% formic acid) and 0% B (acetonitrile with 0.1% formic acid) with a flow rate at 0.5 mL/min. Mobile phase B was allowed to reach 90% within 2 minutes and held for 1 minute before ramping back 0% at 3.2 minutes. The overall run time was six minutes.

[5] = system: mtDNA-encoded protein synthesis in HepG2 cells; experiment: Mitochondria Toxicity Study (Complex IV/Frataxin ratio, dipstick); settings: for IC50: Homo sapiens, HepG2; for mitochondria toxicity: in words, versus linezolid
M. catarrhalis = experiment: MIC assay (broth microdilution); assay type: cell-based; settings: Moraxella catarrhalis; 30 isolates
Method: as §1, §2, §3, §4, §5, §6, §7

S. agalactiae = experiment: MIC assay (broth microdilution); assay type: cell-based; settings: Streptococcus agalactiae
Method: as §1, §2, §3, §4, §5, §6, §7

[6] = system: methicillin-resistant S. aureus (MRSA); experiment: MIC assay (broth microdilution); assay type: cell-based; settings: Staphylococcus aureus, clinical isolates
Method: as §1, §2, §3, §4, §5, §6, §7

[7] = system: methicillin-resistant S. epidermidis (MRSE); experiment: MIC assay (broth microdilution); assay type: cell-based; settings: Staphylococcus epidermidis, clinical isolates
Method: as §1, §2, §3, §4, §5, §6, §7

[8] = system: methicillin-sensitive S. epidermidis (MSSE); experiment: MIC assay (broth microdilution); assay type: cell-based; settings: Staphylococcus epidermidis; clinical isolates
Method: as §1, §2, §3, §4, §5, §6, §7

[9] = system: penicillin-intermediate S. pneumoniae; experiment: MIC assay (broth microdilution); assay type: cell-based; settings: Streptococcus pneumoniae; 27 isolates
Method: as §1, §2, §3, §4, §5, §6, §7

[10] = system: penicillin-resistant S. pneumoniae; experiment: MIC assay (broth microdilution); assay type: cell-based; settings: Streptococcus pneumoniae; 28 isolates
Method: as §1, §2, §3, §4, §5, §6, §7

[11] = system: penicillin-sensitive S. pneumoniae; experiment: MIC assay (broth microdilution); assay type: cell-based; settings: Streptococcus pneumoniae; 27 isolates
Method: as §1, §2, §3, §4, §5, §6, §7

[12] = system: vancomycin-resistant E. faecalis; experiment: MIC assay (broth microdilution); assay type: cell-based; settings: Enterococcus faecalis; clinical isolates
Method: as §1, §2, §3, §4, §5, §6, §7

[13] = system: vancomycin-resistant E. faecium; experiment: MIC assay (broth microdilution); assay type: cell-based; settings: Enterococcus faecium; clinical isolates
Method: as §1, §2, §3, §4, §5, §6, §7

[14] = system: vancomycin-sensitive E. faecalis; experiment: MIC assay (broth microdilution); assay type: cell-based; settings: Enterococcus faecalis; clinical isolates
Method: as §1, §2, §3, §4, §5, §6, §7

[15] = system: vancomycin-sensitive E. faecium; experiment: MIC assay (broth microdilution); assay type: cell-based; settings: Enterococcus faecium; printed only as 'a value'
Method: as §1, §2, §3, §4, §5, §6, §7

[16] = in words; cited from earlier work
[17] = humans; cited from earlier work
[18] = cited from earlier work
[19] = system: Vancomycin-Resistant Enterococcus faecium; Staphylococcus aureus; Streptococcus pneumoniae; Streptococcus pyogenes; Streptococcus agalactiae infections; settings: clinical trials, in words; cited from earlier work
in vivo [20] = settings: male, Sprague Dawley, rat, po, 5 mg/kg
Method: The combo dose was prepared by mixing both by 1:1 to yield a concentration of 5 mg/mL for each compound (pH ˜6) for intravenous and oral administration. The obtained solution was clear and colourless.
Male Sprague Dawley rats (body weight: 170 g to 220 g) were used in this study. Before the pharmacokinetic studies, animals were randomly assigned to the treatment groups.
The plasma samples and the dose formulation were stored at −20° C. until bioanalysis. Sample Analysis
Plasma samples (0.1 mL) were transferred to Eppendorff tube, then 20 μL methanol, and 300 μL IS solution (50 ng/mL) were added to it. After Vortexing for 1 min and centrifuging for 5 min at 15,000 rpm, 5 μL of supernatant was injected into LC/MS/MS.
The concentrations in plasma below the limit of quantitation (LOQ=5 ng/mL) were designated as zero. The pharmacokinetic data analysis was performed using noncompartmental analysis modules in WinNonlin2.0.

[21] = system: Cyp isoforms (1A2; 2C9; 2C19; 2D6; 2E1; 3A4); settings: cited from earlier work

Structure (SMILES)	MIC90 (S. pyogenes)	MIC90 (community-acquired MRSA)	MIC90 [1]	activity (H. influenzae)	activity against antibiotic resistant Grampositive pathogens [2]	AUC(0-t) (in vivo [4])	half-life (in vivo [4]; female)	half-life (in vivo [4]; male)	IC50 [5]	mitochondria toxicity [5]	MIC90 (M. catarrhalis)	MIC90 (S. agalactiae)	MIC90 [6]	MIC90 [7]	MIC90 [8]	MIC90 [9]	MIC90 [10]	MIC90 [11]	MIC90 [12]	MIC90 [13]	further results
[2H]C([2H])(NC(C)=O)[C@H]1CN(c2ccc(N3C([2H])([2H])C([2H])([2H])OC([2H])([2H])C3([2H])[2H])c(F)c2)C(=O)O1 [Compound 100]	1 µg/mL (≈ 2.88 µM)	2 µg/mL (≈ 5.76 µM)	4 µg/mL (≈ 11.5 µM)	poor activity	good activity	16400 ng·h/mL	6.4 h	6.2 h	9.3 µM	comparable to that of linezolid	–	–	–	–	–	–	–	–	–	–	rate of metabolism versus linezolid (chimpanzee studies, in words): more slowly metabolized than linezolid; amount of deuterated M6 metabolite versus linezolid M6 metabolite ([3]; chimpanzee urine): essentially the same; amount excreted intact in the urine versus linezolid ([3]; chimpanzee, regardless of route or sex): approximately twice as much
[2H]C1([2H])OC([2H])([2H])C([2H])([2H])N(c2ccc(N3C[C@H](CNC(C)=O)OC3=O)cc2F)C1([2H])[2H] [Compound 101]	1 µg/mL (≈ 2.9 µM)	2 µg/mL (≈ 5.79 µM)	4 µg/mL (≈ 11.6 µM)	poor activity	good activity	–	–	–	10.5 µM	comparable to that of linezolid	4 µg/mL (≈ 11.6 µM)	2 µg/mL (≈ 5.79 µM)	4 µg/mL (≈ 11.6 µM)	2 µg/mL (≈ 5.79 µM)	2 µg/mL (≈ 5.79 µM)	2 µg/mL (≈ 5.79 µM)	2 µg/mL (≈ 5.79 µM)	2 µg/mL (≈ 5.79 µM)	2 µg/mL (≈ 5.79 µM)	2 µg/mL (≈ 5.79 µM)	MIC90 [14]: 2 µg/mL (≈ 5.79 µM); MIC90 [15]: 2 µg/mL (≈ 5.79 µM); % increase in AUC (both, chimpanzee, in vivo, iv): 31%; % increase in Half-life (both, chimpanzee, in vivo, iv): 30%; % increase in AUC (both, chimpanzee, in vivo, po): 41%; % increase in Cmax (both, chimpanzee, in vivo, po): 22%
[2H]C1([2H])CN(c2ccc(N3C[C@H](CNC(C)=O)OC3=O)cc2F)CC([2H])([2H])O1 [Compound 103, (S)—N-((3-(3-fluoro-4-(4-morpholino-2,2,6,6-d4)-phenyl)-2-oxooxazolidin-5-yl)methyl)acetamide]	–	–	–	–	–	–	–	–	9.7 µM	comparable to that of linezolid	–	–	–	–	–	–	–	–	–	–	–
CC(=O)NCC1CN(c2ccc(N(CCO)CC(=O)O)c(F)c2)C(=O)O1 (stereo not shown) [Compound M4]	–	–	–	–	–	–	–	–	–	–	–	–	–	–	–	–	–	–	–	–	activity of metabolite [16]: inactive
CC(=O)NCC1CN(c2ccc(NCCOCC(=O)O)c(F)c2)C(=O)O1 (stereo not shown) [Compound M6]	–	–	–	–	–	–	–	–	–	–	–	–	–	–	–	–	–	–	–	–	activity of metabolite [16]: inactive
CC(=O)NC[C@H]1CN(c2ccc(N3CCOCC3)c(F)c2)C(=O)O1 [Linezolid, (S)—N-[[3-[3-Fluoro-4-(4-morpholinyl)phenyl]-2-oxo-5-oxazolidinyl]methyl]-acetamide, reference compound]	1 µg/mL (≈ 2.96 µM)	2 µg/mL (≈ 5.93 µM)	4 µg/mL (≈ 11.9 µM)	poor activity	–	11300 ng·h/mL	4.5 h	4.5 h	7.8 µM	–	8 µg/mL (≈ 23.7 µM)	2 µg/mL (≈ 5.93 µM)	4 µg/mL (≈ 11.9 µM)	2 µg/mL (≈ 5.93 µM)	2 µg/mL (≈ 5.93 µM)	2 µg/mL (≈ 5.93 µM)	2 µg/mL (≈ 5.93 µM)	2 µg/mL (≈ 5.93 µM)	2 µg/mL (≈ 5.93 µM)	2 µg/mL (≈ 5.93 µM)	MIC90 [14]: 2 µg/mL (≈ 5.93 µM); MIC90 [15]: 2 µg/mL (≈ 5.93 µM); administered dose found in the urine as the parent compound [17]: Approximately 35%; dose accounted for as the two metabolites (M4, M6) [17]: 50%; tolerability ([18]; 725 mg three times a day, increase in serum creatinine): could not be tolerated; myelosuppression ([18]; patients receiving linezolid, reversible): Myelosuppression has been reported; efficacy in treatment of infections [19]: effective; Tmax (in vivo [20]): 0.83 ± 1.01 h; Cyp substrate, inhibitor or inducer [21]: not a substrate, inhibitor, or inducer
